Test results published in patent publication US8734775B2, “Chemokine derived peptides that bind with chemokine receptor CXCR3 and uses for chronic wound and angiogenesis inhibition treatments” (University of Pittsburgh, priority 2011, dated 2014).

Assays:
HMEC-1 cells = experiment: Tube formation on growth factor reduced Matrigel; format: cell-based, human
Protocol: To determine whether the IP-10 peptide is able to inhibit tube formation, HMEC-1 cells were grown on growth factor reduced (“GFR”) Matrigel in the presence of VEGF165, IP-10 and/or IP-10dp and the cultures inspected and compared to asses the relative degree of tube formation according to the following procedure. GFR Matrigel 10 μl/well (μ-angiogenesis slide, Ibidi), was incubated for 15 minutes at 37° C. HMEC-1 cells (10,000 cells/well) were re-suspended in 1.0% FBS MDCB131 media containing VEGF (75 ng/ml), IP-10 (300 ng/ml) and IP-10dp (10 μM) and or anti-CXCR3 neutralizing antibody. Treated cells (1×10^4 cells/well) were added to 24-well culture plates coated with growth factor reduced Matrigel and incubated for 24 hours at 37° C. to allow tube formation.
The cells cultures were then imaged for tube formation using an Olympus IX70 microscope equipped with a Hammastu camera using MetaView™ software (Universal Imaging Corporation, Downington, Pa.). FIG. 4A is a grid of six labeled black and white photographs taken at this 24 hour point with 4× magnification showing the following representative cell cultures from upper left to lower right: a control culture having no treatment, a culture having treatment only with IP-10, a culture having treatment only with IP-10dp, a culture having treatment only with VEGF, a culture having treatment with combined VEGF and IP-10, and a culture having treatment with combined VEGF and IP-10dp.
Analysis of tube formation was preformed using MetaMorph (obtained from Universal Imaging Corporation, Downington, Pa.), and the results reported in the graph of FIG. 4 are shown as a percent of the no-treatment control. The data reported therein are of N=6 and normalized to no treatment (average±SEM), with *P<0.05. As shown by the graph, IP-10 peptide is able to inhibit tube formation. In particular, after incubation for 24 hours, the HMEC-1 cells cultures were able to form tubes in the presence or absence of VEGF165 (compare the photographic images in FIG. 4A).

[1] = system: HMEC-1 cells treated with CXCR3 siRNA; experiment: Tube formation in CXCR3 siRNA-treated cells; format: cell-based, human; conditions: CXCR3 knockdown; concentrations as in Experiment 3
Protocol: In the various experiments detailed below, unless otherwise noted, siRNA down regulation of CXCR3 was accomplished according to the following procedure. HMEC-1 cells were plated at 5.5×10^5 cells/60 mm dish and incubated overnight. The cells were 90-95% confluent. Cells were transfected with 4 μM siRNA (2 μM Sigma, 2 μM Santa Cruz) using Dharamacon #4 transfection reagent. The cells were incubated for 24 hours, and then placed in EGM-2MV media for 48 hours. The cells were then transfected again as indicated above. After 48 hours of incubation in EGM-2MV media the cells were then used for experimentation.
In the various experiments described below, to the extent not otherwise noted, CXCR3 siRNA transfection was preformed according to the procedure as previously described by Koh et al. (“Methods in Enzymology,” 2008, vol 443, p. 84), and summarized briefly as follows. HMEC-1 cells were plated in 6 well tissue culture plate at 4.0×10^5 cells/well in complete MCDB131 media and incubated overnight. The cells were ˜75% confluent. The media was removed and replaced with serum free Opti-Mem and incubated for 30 minutes. Dharmafect #4 was added to Opti-Mem to a final concentration of 2.5% (final volume […]) then incubated for 5 minutes at room temp. In parallel, CXCR3 siRNA was diluted in Opti-Mem to a final concentration of […] then incubated for 5 minutes at room temp. […]

## PESKAIKNLLKAVSKEMSKRSP (IP-10dp; listed as Homo sapiens) [synthetic fragment of IP-10 comprising residues 78-98, the C-terminal α-helical domain]
HMEC-1 cells; IP-10dp 10 μM plus VEGF 75 ng/ml, 24 hours
  tubes formed in the presence of VEGF165: significant reduction
HMEC-1 cells; IP-10dp 10 μM, no VEGF, 24 hours
  tubes formed compared to control: significant reduction in tubes formed
HMEC-1 cells; presence and absence of VEGF, IP-10dp 10 μM vs IP-10 300 ng/ml
  inhibition of tube formation compared with full length IP-10: slightly better
[1]
  formation of tubes in CXCR3 siRNA-treated cells: did not show a significant difference
